According to a melting point compilation (Tetko et al.; mined from patent text by program, amines drawn as free bases though some values may be those of a salt):

Structure (SMILES)	melting point
CCN1C(=O)C(C)(C)C(=O)N(C)c2cc(CN(CCn3ccc4oc(C)cc4c3=O)Cc3cccnc3COC)ccc21	127 to 129 °C
Cc1cn(C(C)C(=O)N(C)C)nc1-c1cccc(Cl)c1 (stereo not drawn)	73 to 75 °C
c1ccc(C2CC3(CC(c4ccccc4)N2)OCCO3)cc1 (stereo not drawn)	125 to 127 °C
COC(=O)[C@H]1Cc2c([nH]c3ccccc23)[C@@H](c2ccc3c(c2)OCO3)N1	154 to 155 °C
CSC(=S)N1CCN(Cc2ccccc2O)CC1	147 °C
Cc1csc2nc(N3CCC(C(=O)O)CC3)nc(NCc3ccc(F)cc3)c12	279 °C
CCOC(=O)CNc1ncccc1NC(=O)c1ccccc1	115 to 116 °C
CC(C(=O)OC(C)(C)C)c1ccc(N2Cc3ccc(Cl)cc3C2=O)cc1 (stereo not drawn)	169 to 171 °C
CCN(CC)CCNc1ccc(CN(C)S(=O)(=O)CC)c2sc3ccccc3c(=O)c12	159 to 161 °C
COc1cc(OS(=O)(=O)c2ccc(N3CCN(C)C3=O)cc2)cc(OC)c1OC	160 to 162 °C
COc1cnc(N2CCN(c3ccc(N)cc3)CC2)nc1	125 °C
CCCCC1(CC)OCc2c1cnc(C)c2OCC(=O)O (stereo not drawn)	193 °C
N#Cc1ccc(Nc2nc(Oc3c(F)cccc3F)ccc2[N+](=O)[O-])cc1	234 to 236 °C
COc1cc2c(cc1OC)C1=NCCc3cccc(c31)C2=O	228 °C
CN1CCN(Cc2nnc3n2-c2ccc(Cl)cc2C(c2ccccc2)=NC3)CC1	203 to 206 °C
CCC(OCc1ccc(-c2ccc(Cl)cc2)cc1)(C(=O)O)c1ccccc1 (stereo not drawn)	128 to 130 °C
CC(C)(C)NS(=O)(=O)c1cnc(Cl)s1	75 °C
CCOCc1nc2c(N)nc3cc(-n4ccccc4=O)ccc3c2n1CCCOC(C)C	161 to 164 °C
CCOC(=O)Cn1c(-c2ccc([N+](=O)[O-])cc2)nc2cccnc21	192 to 194 °C
CCOC(=O)N1CCCOc2cc(N)ccc21	140 to 143 °C
COc1cccc(C(O)(Cc2ccncc2)c2cccc(OC)c2)c1	134 to 135 °C
NC(=NO)c1ccc(I)cc1	155 to 161 °C
O=C(O)c1cn(C2CC2)c2c(F)c(N3CCN(O)CC3)c(F)cc2c1=O	223 to 227 °C
Cc1ccccc1CN1CCN(C)CC1C1=NCCN1 (stereo not drawn)	156 to 158 °C
CCOP(=O)(OCC)c1cnc2ccc(C(F)(F)F)cc2c1	69 °C

Structure (SMILES)	melting point
CC(C)(C)c1ccc(S(=O)(=O)Nc2nc(Cl)ncc2Oc2ccccc2Cl)cc1	186 to 187 °C
O=C(Cc1cccnc1)N1CCC(=C2c3ccc(Cl)cc3CCc3c(Cl)ccnc32)CC1	59.8 to 63.5 °C
CC(=O)Nc1c(C(=O)c2cccc(OCc3ccccc3)c2)[nH]c2cc(Cl)ccc12	159 to 161 °C
CC(C)C(=O)N[C@H]1C[C@@H](c2cc(NC(=O)Cc3cccc4ccccc34)n[nH]2)C1	131 °C
COC(=O)C(c1ccccc1)c1cn[nH]c1 (racemic)	100 to 103 °C
COc1ccc2c3c1OC1C(=O)C(C)(C)C(C)C4C(C2)N(C)CCC314 (stereo not drawn)	246 to 248 °C
Nc1cccc(C#CCCN2CCC(O)(c3ccc(Cl)cc3)CC2)c1	139 to 140 °C
CCOC(=O)C(O)=CC=C(SC)C(=O)c1ccc(O)c(O)c1	156 °C
CN1C(=O)[C@@H](NC(=O)C(C)(C)C)N=C(c2ccccc2)c2ccccc21	85 to 94 °C
CC(C)Oc1ccc([N+](=O)[O-])cc1O	139 °C
O=C1O[C@@H](CO)CN1c1ccc2ncccc2c1	165 °C
Cc1cc(NC(=O)C(C)(O)COc2cccc(C(F)(F)F)c2)ccc1[N+](=O)[O-] (stereo not drawn)	84 to 87 °C
CN(C)CCOc1cc(-c2ccccc2)nn1N	80 °C
OCc1cn(-c2ccc(F)c(C(F)F)c2)cn1	133 to 134 °C
COc1ccc(-c2nc3n(c2-c2ccccc2)Cc2ccccc2C3)cc1	172 to 173 °C
CN1CCC23CC(=O)C=CC2C1Cc1cccc(Oc2nnnn2-c2ccccc2)c13 (stereo not drawn)	172 to 174 °C
COc1ccc(C(=O)CCC(=O)O)cc1CO	217 to 218 °C
CS(=O)(=O)Nc1ccc2c(c1)C(=O)C(C1CCN(CCc3ccc4nonc4c3)CC1)C2 (stereo not drawn)	214 to 217 °C
COc1ccc(S(=O)(=O)c2ccc(NC(=O)NC34CC5CC(CC(C5)C3)C4)cc2)nn1	252 to 254 °C
CC(C)(C)N(NC(=O)c1ccccc1)C(=O)Cc1ccccc1	167 to 169 °C
CCOC(=O)c1ccc(/C=C(\C)c2ccc(O)c(C3(C)CCCCC3)c2)cc1	124 °C
COc1nc(C)nc(NC(=O)NS(=O)(=O)c2ccccc2OCC(Cl)CCl)n1 (stereo not drawn)	117 to 118 °C
O=C(NCCCc1ccncc1)N(C1CCCCC1)C1CCCCC1	143 to 146 °C
N#CCc1ccc(CCOc2ccc(CC3SC(=N)NC3=O)cc2)nc1 (stereo not drawn)	211 to 212 °C
Cc1cc(C)nc(SSc2ccc([N+](=O)[O-])cc2C(Cl)(Cl)Cl)n1	151 °C

Structure (SMILES)	melting point
O=C(O)C(=O)c1cnsc1	145 to 148 °C
COC(=O)C(O)(c1ccc(Cl)c(Cl)c1)c1ccc(Cl)c(Cl)c1	69 °C
CN(C)Cc1cccc(OCCCNc2nc(N=Cc3ccncc3)nn2C)c1	127 to 128 °C
Nc1ccc(C(=O)Nc2ccc(Cl)nc2)cc1F	193 °C
CCOC(=O)c1ccc(-c2nc3cc4c(cc3[nH]2)NC(=O)C4(C)C)c(OC)c1	235 to 240 °C
CCc1cnc(CC(C#Cc2ccccc2)c2ccc(OC)c(OC3CCCC3)c2)o1 (racemic)	94 to 96 °C
CS(=O)(=O)Nc1cc(Cl)c(Cl)cc1Cl	144 to 145 °C
CNc1cc(NS(=O)(=O)c2ccc(N)cc2)nc(N(C)C)n1	253 to 254 °C
CC(C)(C)NC(=O)[C@@H]1C[C@H](Cl)CN1C(=O)[C@@H](O)[C@H](Cc1ccccc1)NC(=O)[C@H](CC(N)=O)NC(=O)OCc1ccccc1	103 to 107 °C
CC#CCOc1ccc(S(=O)(=O)N(C)C(C(=O)NO)C(C)(C)SCCN(CC)CC)cc1 (stereo not drawn)	55 to 57 °C
N#CCC(CC#N)c1ccccc1Br	94 to 96 °C
N#Cc1cc(O)cc(OCCc2ccccn2)c1N	149 to 150 °C
CCn1c2ccccc2c2cc(N(Cc3ccccc3)Cc3ccccc3)ccc21	123 to 125 °C
Cc1ccc2c(c1)C(=O)C[C@H]1CCN(C)C[C@H]21 (relative stereo)	> 250 °C
COC(=O)[C@H](Cc1ccc(NC(=S)NCCc2ccccc2)cc1)NC(=O)[C@@H]1CCCN1S(=O)(=O)c1ccc(C)cc1	76 to 81 °C
CON1C(C)(C)CC(OC(=O)C2=C(c3ccccc3)C(c3ccccc3)OC2=O)CC1(C)C (stereo not drawn)	143 to 146 °C
CC(C)(C)OC(=O)[C@@H]1CCCN1C(=O)C1CCC1SC(=O)c1ccccc1 (stereo partly drawn)	102 to 103 °C
COc1ccc(-c2cn(C)cc(-c3cccc(C(F)(F)F)c3)c2=O)cc1OC	148 to 150 °C
Oc1ccc2c(c1)CCCC(c1ccccc1)=C2c1ccc(OCCCCCSCCCC(F)(F)F)cc1	168 °C
Cc1c(Nc2c(I)cncc2C#N)ccc2[nH]ccc12	192 to 194 °C
N#CCCOC(=O)NC(=O)C(c1ccccc1)c1ccccc1	113 °C
CCCCc1oc2ccccc2c1C(O)c1cc(I)c(OCCN(CC)CC)c(I)c1 (stereo not drawn)	106 to 107 °C
CCC(OCc1ccc(-c2ccc(Cl)cc2)cc1)(C(=O)OC)c1ccccc1 (stereo not drawn)	68 to 72 °C
Cc1cccc2c(=O)n3c(nc12)C(=O)c1ccccc1-3	247 to 248 °C
Cc1cn(C2COC(CO)C(O)C2)c(=O)[nH]c1=O (stereo not drawn)	87 to 89 °C

Structure (SMILES)	melting point
O=C(Nc1c(C(O)(C(F)(F)F)C(F)(F)F)ccc2ccccc12)c1ccc(F)cc1	135 to 136 °C
CCC(=O)c1ccc(C(CC(=O)Nc2cc(C(N)=O)ccc2C(C)(C)C)CC(C)C)c(OC)c1 (stereo not drawn)	186 to 187 °C
O=C(O)C(=O)CC(=O)c1cn(CCCCc2ccccc2)c2ccccc2c1=O	136 to 138 °C
CCc1nnc2c(Nc3ccccc3)nc3ccccc3n12	172 to 174 °C
CC(=O)NC[C@H]1CN(c2ccc(N3CCN(C(=O)CCC(=O)c4ccc(CN(C)C)cc4)CC3)c(F)c2)C(=O)O1	190 to 192 °C
O=CC(=O)c1ccc(OCc2ccccc2)c(CO)c1	180 to 181 °C
CC(=O)OCC1(COC(C)=O)CC1(Br)Cn1cc(C)c(=O)[nH]c1=O (stereo not drawn)	197 to 198 °C
CC1OC(=S)c2c(O)cccc21 (stereo not drawn)	39 to 41 °C
Clc1cc(C#Cc2nccs2)c2oc(Cc3ccccc3Cl)nc2c1	149 to 151 °C
CCOC(=O)c1cc2c(s1)-c1c(SC)sc(C(=O)OCC)c1CC2	107 to 108 °C
Cc1cccc(N2CCN(CCc3ccc(N4CCCNC4=O)cc3)CC2)c1	213 °C
CCCCOc1c(CNC(=O)OC(C)(C)C)n(CC(C)(C)C)c(=O)c2ccc(F)cc12	168 to 169 °C
CCCOCCOc1ccc(-c2ccc3c(c2)C=C(C(=O)Nc2ccc(CN(C)C4CCOCC4)cc2)CCS3(=O)=O)cc1OCC	171 to 172 °C
O=C(O)CCCc1cc2nc(Cl)ccc2n1S(=O)(=O)c1cccc2cccnc12	186 to 189 °C
CCC1CCC2(C)C(=CCC3C4CC(O)C(=O)C4(C)CCC32)C1 (stereo not drawn)	166 to 168 °C
Cc1ccc2c(c1)c1cc(-c3ccc(OCC#N)cc3)c(=O)n(C)c1n2C	195 to 196 °C
CS(=O)(=O)Oc1cc(NN)c(F)cc1Cl	75 to 77 °C
CC1(C)CCC(C)(C)c2cc(-c3cn(-c4ccc(C(=O)O)cc4)c(S)n3)ccc21	170 to 172 °C
CCOC(=O)c1cnc2c(OC)nc(OC)cc2c1Cl	200 to 210 °C
Cc1cc2c(-c3cccc(C=O)c3)c(CC(=O)O)c(=O)oc2cc1Cl	230 to 232 °C
O=C(Nc1ccc(CN2C(=O)[C@H]3CCC[C@H]3N(C(=O)CN3C(=O)c4ccccc4C3=O)c3ccccc32)cc1)c1ccccc1 (relative stereo)	252 to 255 °C
N#CC(C#N)=Cc1ccc(OS(=O)(=O)c2cc(Cl)c(Cl)cc2Cl)cc1	165 to 166 °C
CC(=O)Nc1ccc(C(C)=O)c(C)n1	201 to 202 °C
